“And” between values parts separate entries of the source, which are not always exact repeats. Equal values may be shown once.
Columns and labels:
[1] = Drug solubility / drug loading in solvents and compositions; type: physicochemical
Beagle dogs = assay: Two-week SC injection study in dogs; type: in vivo
Description: In a separate study, Beagle dogs (n=4/sex/dose group) received daily SC injections for 2 weeks. The solution that was tested included 30 mg/mL of 25HC3 S sodium salt in vehicle (250 mg/mL hydroxypropyl-β-cyclodextrin in 10 mM sodium phosphate buffer). Dose levels of 0 (vehicle), 3, 10 and 30 mg/kg of 25HC3S were administered in dose volumes of 1.0, 0.1, 0.33 and 1.0 mL/kg. Following 14 days of dose administration, all dogs were euthanized and necropsied.

[2] = Infusion compatibility: 25HC3S diluted in 0.9% sodium chloride infusion bag and eluted through infusion sets (potency, osmolality, pH, appearance); type: physicochemical
Description: A physical and chemical compatibility study was conducted at a 30 mg, 48 mg and 300 mg 25HC3S dose in 5% dextrose and 0.9% sodium chloride infusion bags. Descriptions of the two kinds of infusion sets tested with 25HC3S product diluted in 5% dextrose and 0.9% sodium chloride are listed in Table 15. The tubing in catalog number 2H8480 infusion set was composed of polyvinylchloride (PVC), while the tubing in catalog number 2C8858 was polyethylene lined except for a short pump segment (approximately 12 inches) which was composed of PVC.
25HC3S for Injection and Vehicle for 25HC3S for Injection, that had been stored at 2-8° C. for approximately 16 months, were used for the compatibility study. After constitution, 30 mg (1.0 mL of constituted product), 48 mg (1.6 mL of constituted product) or 300 mg (10 mL of constituted product) were added to 100 mL infusion bags of 5% dextrose and 0.9% sodium chloride, mixed thoroughly, and stored for 24 hours at room temperature and at 2-8° C. […] Taking into consideration the overfill per infusion bag and the additional volume introduced by adding the constituted 25HC3S product to each bag, the expected concentrations of 25HC3S were 0.28 mg/mL, 0.44 mg/mL, and 2.56 mg/mL in the infusion bags. Two kinds of infusion sets were then attached to the drug containing infusion bags, and the entire contents were eluted through the infusion sets at approximately 50 mL/hour at room temperature. Samples were collected from the 25HC3S prepared infusion bags at T=0 and at 24 hours, and from the total eluent passed through the infusion sets, and tested for 25HC3S concentration using HPLC. Solution visual appearance, osmolality (using method USP<785>), and pH (using method USP<791>) were also measured on the collected samples.

[3] = 0.9% sodium chloride bag, approx. 0.28 mg/mL 25HC3S
[4] = 0.9% sodium chloride bag, approx. 0.44 mg/mL 25HC3S
[5] = 0.9% sodium chloride bag, approx. 2.56 mg/mL 25HC3S
[6] = 0.9% sodium chloride, approx. 0.28 mg/mL, bag 24 h at 2-8° C., Baxter 2C8858
[7] = 0.9% sodium chloride, approx. 0.28 mg/mL, bag 24 h at 2-8° C., Baxter 2H8480
[8] = 0.9% sodium chloride, approx. 0.28 mg/mL, bag 24 h at 25° C., Baxter 2C8858
[9] = 0.9% sodium chloride, approx. 0.28 mg/mL, bag 24 h at 25° C., Baxter 2H8480
[10] = 0.9% sodium chloride, approx. 0.44 mg/mL, bag 24 h at 2-8° C., Baxter 2C8858
[11] = 0.9% sodium chloride, approx. 0.44 mg/mL, bag 24 h at 2-8° C., Baxter 2H8480
[12] = 0.9% sodium chloride, approx. 0.44 mg/mL, bag 24 h at 25° C., Baxter 2C8858
[13] = 0.9% sodium chloride, approx. 0.44 mg/mL, bag 24 h at 25° C., Baxter 2H8480
[14] = 0.9% sodium chloride, approx. 2.56 mg/mL, bag 24 h at 2-8° C., Baxter 2C8858
[15] = 0.9% sodium chloride, approx. 2.56 mg/mL, bag 24 h at 2-8° C., Baxter 2H8480
[16] = 0.9% sodium chloride, approx. 2.56 mg/mL, bag 24 h at 25° C., Baxter 2C8858
[17] = 0.9% sodium chloride, approx. 2.56 mg/mL, bag 24 h at 25° C., Baxter 2H8480
[18] = sodium chloride, approximately 0.28 mg/mL 25HC3S
[19] = sodium chloride, approximately 0.44 mg/mL 25HC3S
[20] = sodium chloride, approximately 2.56 mg/mL 25HC3S

## C[C@H](CCCC(C)(C)O)[C@H]1CC[C@H]2[C@@H]3CC=C4C[C@@H](OS(=O)(=O)[O-])CC[C@]4(C)[C@H]3CC[C@]12C.[Na+] [Formulation 25HC3S, 5-cholesten-3, 25-diol, 3-sulfate]
[1]; 6 wt % 25HC3S, compositions of Tables 31 and 32
  state of drug in the prepared compositions: all in solution
[1]; Carbopol based creams or gels
  maximum drug loading achieved: 1 wt %
[1]; in EtOH
  drug solubility: ~3 mg/mL
[1]; in PEG 400
  drug solubility: ~130 mg/mL
[1]; in PG
  drug solubility: ~30 mg/mL
Beagle dogs; daily SC 2 weeks, compared to vehicle only (FIG. 1C)
  swelling at the site of injection: markedly decreased
Beagle dogs; daily SC 3, 10, 30 mg/kg, 2 weeks (FIG. 1B)
  fibroplasia, hemorrhage, inflammation and necrosis in injection sites: incidence and severity: generally higher in vehicle controls compared to drug-treated dogs
[2]; [3]
  24 Hours at 2-8° C. Concentration: 0.275 mg/mL
  24 Hours at 2-8° C. Osmolality: 276 mmol/kg
  24 Hours at 2-8° C. pH: 5.87 and 5.99
  24 Hours at 25° C. Concentration: 0.272 mg/mL and 0.274 mg/mL
  24 Hours at 25° C. Osmolality: 275 mmol/kg and 277 mmol/kg
  24 Hours at 25° C. pH: 5.93 and 5.92
  T = 0 Conc.: 0.273 mg/mL and 0.274 mg/mL and 0.275 mg/mL
  T = 0 Osmolality: 278 mmol/kg and 277 mmol/kg
  T = 0 pH: 6.39 and 6.43 and 6.45 and 6.40
[2]; [4]
  24 Hours at 2-8° C. % Remaining Compared to T = 0: (100.0%)
  24 Hours at 2-8° C. Concentration: 0.434 mg/mL and 0.425 mg/mL
  24 Hours at 2-8° C. Osmolality: 281 mmol/kg
  24 Hours at 2-8° C. pH: 7.43 and 7.19
  24 Hours at 25° C. % Remaining Compared to T = 0: (100.0%)
  24 Hours at 25° C. Concentration: 0.434 mg/mL and 0.424 mg/mL
  24 Hours at 25° C. Osmolality: 280 mmol/kg
  24 Hours at 25° C. pH: 7.33 and 7.41
  T = 0 Conc.: 0.434 mg/mL and 0.424 mg/mL and 0.425 mg/mL
  T = 0 Osmolality: 277 mmol/kg and 279 mmol/kg and 284 mmol/kg and 280 mmol/kg
  T = 0 pH: 7.30 and 7.43 and 7.21 and 7.44
[2]; [5]
  24 Hours at 2-8° C. Concentration: 2.510 mg/mL and 2.520 mg/mL
  24 Hours at 2-8° C. Osmolality: 283 mmol/kg
  24 Hours at 2-8° C. pH: 5.93 and 5.96
  24 Hours at 25° C. Concentration: 2.500 mg/mL and 2.525 mg/mL
  24 Hours at 25° C. Osmolality: 282 mmol/kg
  24 Hours at 25° C. pH: 6.01 and 5.86
  T = 0 Conc.: 2.450 mg/mL and 2.530 mg/mL and 2.525 mg/mL
  T = 0 Osmolality: 282 mmol/kg and 281 mmol/kg
  T = 0 pH: 6.20 and 6.10 and 6.07 and 6.11
[2]; [6]
  After Storage in Infusion Bag and Collection from Infusion Set % Remaining Compared to T = 0: (100.0%)
  After Storage in Infusion Bag and Collection from Infusion Set Concentration: 0.275 mg/mL
  After Storage in Infusion Bag and Collection from Infusion Set Osmolality: 276 mmol/kg
  After Storage in Infusion Bag and Collection from Infusion Set pH: 5.78
[2]; [7]
  After Storage in Infusion Bag and Collection from Infusion Set % Remaining Compared to T = 0: (100.4%)
  After Storage in Infusion Bag and Collection from Infusion Set Concentration: 0.275 mg/mL
  After Storage in Infusion Bag and Collection from Infusion Set Osmolality: 277 mmol/kg
  After Storage in Infusion Bag and Collection from Infusion Set pH: 5.81
[2]; [8]
  After Storage in Infusion Bag and Collection from Infusion Set % Remaining Compared to T = 0: (100.0%)
  After Storage in Infusion Bag and Collection from Infusion Set Concentration: 0.274 mg/mL
  After Storage in Infusion Bag and Collection from Infusion Set Osmolality: 276 mmol/kg
  After Storage in Infusion Bag and Collection from Infusion Set pH: 5.83
[2]; [9]
  After Storage in Infusion Bag and Collection from Infusion Set % Remaining Compared to T = 0: (99.6%)
  After Storage in Infusion Bag and Collection from Infusion Set Concentration: 0.272 mg/mL
  After Storage in Infusion Bag and Collection from Infusion Set Osmolality: 276 mmol/kg
  After Storage in Infusion Bag and Collection from Infusion Set pH: 5.78
[2]; [10]
  After Storage in Infusion Bag and Collection from Infusion Set % Remaining Compared to T = 0: (100.2%)
  After Storage in Infusion Bag and Collection from Infusion Set Concentration: 0.426 mg/mL
  After Storage in Infusion Bag and Collection from Infusion Set Osmolality: 281 mmol/kg
  After Storage in Infusion Bag and Collection from Infusion Set pH: 7.16
[2]; [11]
  After Storage in Infusion Bag and Collection from Infusion Set % Remaining Compared to T = 0: (100.0%)
  After Storage in Infusion Bag and Collection from Infusion Set Concentration: 0.434 mg/mL
  After Storage in Infusion Bag and Collection from Infusion Set Osmolality: 282 mmol/kg
  After Storage in Infusion Bag and Collection from Infusion Set pH: 7.13
[2]; [12]
  After Storage in Infusion Bag and Collection from Infusion Set % Remaining Compared to T = 0: (100.0%)
  After Storage in Infusion Bag and Collection from Infusion Set Concentration: 0.424 mg/mL
  After Storage in Infusion Bag and Collection from Infusion Set Osmolality: 288 mmol/kg
  After Storage in Infusion Bag and Collection from Infusion Set pH: 7.20
[2]; [13]
  After Storage in Infusion Bag and Collection from Infusion Set % Remaining Compared to T = 0: (99.8%)
  After Storage in Infusion Bag and Collection from Infusion Set Concentration: 0.433 mg/mL
  After Storage in Infusion Bag and Collection from Infusion Set Osmolality: 286 mmol/kg
  After Storage in Infusion Bag and Collection from Infusion Set pH: 7.09
[2]; [14]
  After Storage in Infusion Bag and Collection from Infusion Set % Remaining Compared to T = 0: (99.8%)
  After Storage in Infusion Bag and Collection from Infusion Set Concentration: 2.520 mg/mL
  After Storage in Infusion Bag and Collection from Infusion Set Osmolality: 283 mmol/kg
  After Storage in Infusion Bag and Collection from Infusion Set pH: 5.70
[2]; [15]
  After Storage in Infusion Bag and Collection from Infusion Set % Remaining Compared to T = 0: (100.0%)
  After Storage in Infusion Bag and Collection from Infusion Set Concentration: 2.530 mg/mL
  After Storage in Infusion Bag and Collection from Infusion Set Osmolality: 283 mmol/kg
  After Storage in Infusion Bag and Collection from Infusion Set pH: 5.72
[2]; [16]
  After Storage in Infusion Bag and Collection from Infusion Set % Remaining Compared to T = 0: (99.6%)
  After Storage in Infusion Bag and Collection from Infusion Set Concentration: 2.520 mg/mL
  After Storage in Infusion Bag and Collection from Infusion Set Osmolality: 279 mmol/kg
  After Storage in Infusion Bag and Collection from Infusion Set pH: 5.83
[2]; [17]
  After Storage in Infusion Bag and Collection from Infusion Set % Remaining Compared to T = 0: (100.4%)
  After Storage in Infusion Bag and Collection from Infusion Set Concentration: 2.460 mg/mL
  After Storage in Infusion Bag and Collection from Infusion Set Osmolality: 283 mmol/kg
  After Storage in Infusion Bag and Collection from Infusion Set pH: 5.81
[2]; 0.9% sodium chloride, after 24 hours at room temperature and at 2-8° C., and after elution through infusion sets
  deviation of 25HC3S concentrations from the initial T=0 time point: ≤ 2.0%
[2]; sodium chloride drug containing solutions
  osmolality trend: no consistent trends over time in the infusion bag or after elution through the infusion sets
[2]; sodium chloride, all three concentrations, after 24 hours in bags and after elution
  solution visual appearance: remained as clear and colorless solutions
[2]; [18]
  decrease of pH over 24 hours in the infusion bags: ~0.5 pH unit
  pH change after elution through the infusion sets: decrease by approximately a tenth of a pH
[2]; [19]
  pH change after elution through the infusion sets: decrease by a few tenths of a pH
  pH trend over time in the infusion bags: no consistent trends over time in the infusion bags
[2]; [20]
  pH change after elution through the infusion sets: drop by a few tenths of a pH
  pH change over time in the infusion bags: slight decrease by a tenth of a pH
